Results: patent US20230172849A1, “INHALED STATINS FOR TREATMENT OF VIRAL RESPIRATORY DISEASES” (priority 2020, published 2023)
Entries after “also recorded” stand apart in the source; their conditions may differ. Where a name gives a salt, the structure may show the parent alone. Read-outs that look alike come from different tables or passages of the source.

How the values were obtained:
[1] = target: SARS-CoV-2 Spike S1 (RBD) (Severe acute respiratory syndrome coronavirus 2, UniProt P0DTC2); assay: biochemical; assay type: binding
[2] = system: SARS-CoV-2; assay type: cell-based
[3] = system: SARS-CoV-2; assay: combination therapy, viral load by RT-PCR (ORF1ab gene) in Calu-3 cells; assay type: cell-based; design: key to enhanced decrease of viral load, combination vs two single agents: Each combination that showed an enhanced decrease of viral load as compared with the two single agents is denoted by “E”; Combinations that showed a slight trend towards an enhanced decrease of viral load as compared with the two single agents is denoted by “(e)”; —; conditions: for decrease of viral load, agent alone: FIG. 31, mixed with SARS-CoV-2 (MOI 0.01) 1 hour at room temperature, RT-PCR (ORF1ab) 24 hours post infection, of the control
[4] = system: human bronchial epithelial cells (HBE1); assay: depletion of total cellular cholesterol in HBE1 cells; assay type: cell-based; conditions: HBE1, 48 hours; 50-400 nM and 1-20 μM; concentrations marked (*) in FIGS. 1, 2; p<0.05
Experimental: Total cellular cholesterol was measured by spectrophotometry, and plotted as the ratio of absorbance to total protein in μg. […] Significant reductions in cholesterol content (≥50%, p<0.05) are indicated (*).

[5] = Table 2, read-out: Affinity (nM) of binding to SARS-COV2 Spike protein

CC[C@H](C)C(=O)O[C@H]1C[C@H](O)C=C2C=C[C@H](C)[C@H](CC[C@@H](O)C[C@@H](O)CC(=O)O)[C@H]21 [INS101, Pravastatin Sodium]
binding to SARS-COV-2 S-protein (in words) ([1]; MST binding assay): weak binding; also recorded: none or very low affinity | Remarks ([1]; Table 1, binding to SARS-CoV-2 S1): No interaction/weak binder

CCC(C)(C)C(=O)O[C@H]1C[C@@H](C)C=C2C=C[C@H](C)[C@H](CC[C@@H]3C[C@@H](O)CC(=O)O3)[C@H]21 [INS102, Simvastatin]
Average (percent cell viability) ([2]; Case A: compound added 1 h after infection, 72 h contact, 0.1 uM): 5.506% | Average (percent cell viability) ([2]; Case A: compound added 1 h after infection, 72 h contact, 1 uM): 7.304% | Average (percent cell viability) ([2]; Case A: compound added 1 h after infection, 72 h contact, 10 uM): 17.48% | Average (percent cell viability) ([2]; Case B: compound added 24 h after infection, 48 h contact, 0.1 uM): 6.427% | Average (percent cell viability) ([2]; Case B: compound added 24 h after infection, 48 h contact, 1 uM): 9.597% | Average (percent cell viability) ([2]; Case B: compound added 24 h after infection, 48 h contact, 10 uM): 11.85% | Average (percent cell viability) ([2]; Case C: compound added 48 h after infection, 24 h contact, 0.1 uM): 3.967% | Average (percent cell viability) ([2]; Case C: compound added 48 h after infection, 24 h contact, 1 uM): 2.16% | Average (percent cell viability) ([2]; Case C: compound added 48 h after infection, 24 h contact, 10 uM): 6.117% | Average (percent cell viability) ([2]; Case D: pre-treated 6 h, then infected 72 h, 0.1 uM): 35.26% | Average (percent cell viability) ([2]; Case D: pre-treated 6 h, then infected 72 h, 1 uM): 31.9% | Average (percent cell viability) ([2]; Case D: pre-treated 6 h, then infected 72 h, 10 uM): 33.31% | Average (percent cell viability) ([2]; Case E: pre-treated 24 h, then infected 72 h, 0.1 uM): −0.98% | Average (percent cell viability) ([2]; Case E: pre-treated 24 h, then infected 72 h, 1.0 uM): 29.28% | Average (percent cell viability) ([2]; Case E: pre-treated 24 h, then infected 72 h, 10.0 uM): 46.90% | Average (percent cell viability) ([2]; Case F: compound 1 h before infection (coinc 1 h), then virus 72 h, 0.1 uM): 10.1% | Average (percent cell viability) ([2]; Case F: compound 1 h before infection (coinc 1 h), then virus 72 h, 1 uM): 8.721% | Average (percent cell viability) ([2]; Case F: compound 1 h before infection (coinc 1 h), then virus 72 h, 10 uM): 19.4% | enhanced decrease of viral load, combination vs two single agents ([3]; statin 0.1 μM + Dex 0.1 μM): — | enhanced decrease of viral load, combination vs two single agents ([3]; statin 0.1 μM + Dex 1 μM): E | enhanced decrease of viral load, combination vs two single agents ([3]; statin 0.1 μM + Dex 10 μM): E | enhanced decrease of viral load, combination vs two single agents ([3]; statin 0.1 μM + Remde 1): — | enhanced decrease of viral load, combination vs two single agents ([3]; statin 0.1 μM + Remde 10): — | enhanced decrease of viral load, combination vs two single agents ([3]; statin 0.1 μM + Remde 100): — | enhanced decrease of viral load, combination vs two single agents ([3]; statin 1 μM + Dex 0.1 μM): E | enhanced decrease of viral load, combination vs two single agents ([3]; statin 1 μM + Dex 1 μM): E | enhanced decrease of viral load, combination vs two single agents ([3]; statin 1 μM + Dex 10 μM): — | enhanced decrease of viral load, combination vs two single agents ([3]; statin 1 μM + Remde 1): — | enhanced decrease of viral load, combination vs two single agents ([3]; statin 1 μM + Remde 10): — | enhanced decrease of viral load, combination vs two single agents ([3]; statin 1 μM + Remde 100): E | enhanced decrease of viral load, combination vs two single agents ([3]; statin 10 μM + Dex 0.1 μM): — | enhanced decrease of viral load, combination vs two single agents ([3]; statin 10 μM + Dex 1 μM): — | enhanced decrease of viral load, combination vs two single agents ([3]; statin 10 μM + Dex 10 μM): — | enhanced decrease of viral load, combination vs two single agents ([3]; statin 10 μM + Remde 1): — | enhanced decrease of viral load, combination vs two single agents ([3]; statin 10 μM + Remde 10): — | enhanced decrease of viral load, combination vs two single agents ([3]; statin 10 μM + Remde 100): E | reduction in cholesterol content [4]: ≥ 50%

CCC(C)(C)C(=O)O[C@H]1C[C@@H](C)C=C2C=C[C@H](C)[C@H](CC[C@@H](O)C[C@@H](O)CC(=O)O)[C@H]21 [INS106, Simvastatin Hydroxy Acid, Ammonium Salt]
Kd [1, 5]: 1570 to 2600 nM

CC(C)c1c(C(=O)Nc2ccccc2)c(-c2ccccc2)c(-c2ccc(F)cc2)n1CC[C@@H](O)C[C@@H](O)CC(=O)O [INS104, Atorvastatin]
Kd [1]: 234 to 456 nM | Remarks [1]: Strong Binding | S/N [1]: 8.5-8.7 | binding to SARS-COV-2 S-protein (in words) [1]: bind with SARS-COV-2 S-protein at nanomolar (nM) concentrations | Kd ([1]; read-out: Affinity (nM) of binding to SARS-COV2 Spike protein): 234 to 456 nM | decrease of viral load, agent alone [3]: 22% | decrease in viral load, combination with remdesivir or dexamethasone vs monotherapies ([3]; FIGS. 30, 31, statin and SARS-CoV-2 (MOI 0.01) mixed 1 hour at room temperature, 24 hours post infection): synergistic | enhanced decrease of viral load, combination vs two single agents ([3]; statin 0.2 μM + Dex 0.1 μM): — | enhanced decrease of viral load, combination vs two single agents ([3]; statin 0.2 μM + Dex 1 μM): (e) | enhanced decrease of viral load, combination vs two single agents ([3]; statin 0.2 μM + Dex 10 μM): — | enhanced decrease of viral load, combination vs two single agents ([3]; statin 0.2 μM + Remde 1): — | enhanced decrease of viral load, combination vs two single agents ([3]; statin 0.2 μM + Remde 10): — | enhanced decrease of viral load, combination vs two single agents ([3]; statin 0.2 μM + Remde 100): (e) | enhanced decrease of viral load, combination vs two single agents ([3]; statin 1 μM + Dex 0.1 μM): — | enhanced decrease of viral load, combination vs two single agents ([3]; statin 1 μM + Dex 1 μM): E | enhanced decrease of viral load, combination vs two single agents ([3]; statin 1 μM + Dex 10 μM): (e) | enhanced decrease of viral load, combination vs two single agents ([3]; statin 1 μM + Remde 1): — | enhanced decrease of viral load, combination vs two single agents ([3]; statin 1 μM + Remde 10): (e) | enhanced decrease of viral load, combination vs two single agents ([3]; statin 1 μM + Remde 100): — | enhanced decrease of viral load, combination vs two single agents ([3]; statin 5 μM + Dex 0.1 μM): — | enhanced decrease of viral load, combination vs two single agents ([3]; statin 5 μM + Dex 1 μM): synergistic enhancement and E | enhanced decrease of viral load, combination vs two single agents ([3]; statin 5 μM + Dex 10 μM): enhancement was maintained at a lower level and E | enhanced decrease of viral load, combination vs two single agents ([3]; statin 5 μM + Remde 1): — | enhanced decrease of viral load, combination vs two single agents ([3]; statin 5 μM + Remde 10): enhancement in the decrease of viral load and E | enhanced decrease of viral load, combination vs two single agents ([3]; statin 5 μM + Remde 100): —

Hydroxy Simvastatin [INS102-S]
binding to SARS-COV-2 S-protein (in words) ([1]; MST binding assay): weak binding

CC[C@H](C)C(=O)O[C@H]1C[C@@H](C)C=C2C=C[C@H](C)[C@H](CC[C@@H]3C[C@@H](O)CC(=O)O3)[C@H]21 [INS105, Lovastatin]
Kd [1, 5]: 529 to 929 nM

C[C@H](N[C@@H](CCc1ccccc1)C(=O)O)C(=O)N1CCC[C@H]1C(=O)O [INS107]
binding to SARS-COV-2 S-protein (in words) ([1]; MST binding assay): no binding is indicated

C[C@@H]1C[C@H]2[C@@H]3CCC4=CC(=O)C=C[C@]4(C)[C@@]3(F)[C@@H](O)C[C@]2(C)[C@@]1(O)C(=O)CO [Dexamethasone, dexamethasone]
decrease of viral load, agent alone [3]: 46%
